Reference: paper PMC7531004, “Discovery of gramicidin A analogues with altered activities by multidimensional screening of a one-bead-one-compound library” (Nature Communications, 2020)
Values joined by “and” are separate entries in the source; they are usually repeats but may differ in a detail not shown here. Equal entries are not always repeated. Where two headings read alike, the source gives them in different places. Where a SMILES comes first, the peptide text is derived from it. [ ]: non-standard residue; d: D form. The star is where a group is joined. NHCH2CH2OH = OCCN*; For = O=C*

Tests used:
[1] = test system: Enterococcus faecalis JCM5803; conditions: for antibacterial activity/MIC: E. faecalis; for Antibacterial activity MIC: JCM5803
Experimental: (§1) Third, 1 was subjected to five pathogenic Gram-positive bacteria.
(§2) Evaluation of antibacterial spectra of purified peptides. The MIC assay was performed according to the Clinical and Laboratory Standards Institute protocols. The antibacterial activities of the purified peptides A1, B01–B04, B11–B13, B21, and B22 were measured using the broth microdilution method. 6 Serial dilutions of the peptides were prepared in cation adjusted Mueller Hinton Broth. Each dilution (100 µL) was dispensed to each well of the round-bottom plate to obtain final concentrations ranging from 64 µg/mL to 0.00024 µg/mL. Bacteria were grown at 37 °C overnight on Tryptic Soy Broth or Mueller Hinton Broth agar plates.
(§3) The bacterial colonies were suspended in 0.9% saline to obtain OD 625 of 0.08–0.13 using a spectrophotometer UV-1280 (Shimadzu). The resultant suspension was diluted with cation adjusted Mueller Hinton Broth (1/20). The resultant mixture (10 .0 µL) was inoculated to each well of the plates (approximately 5 × 10^4 CFU/well), mixed, and incubated at 37 °C for 18–24 h. The MIC value was determined as the minimum concentration that inhibited growth of bacteria. For Streptococcus species, cation adjusted Mueller Hinton Broth supplemented with 5% laked horse blood was used. […]

[2] = test system: Listeria monocytogenes 10403S; conditions: for antibacterial activity/MIC: L. monocytogenes
Experimental: as §1, §2, §3

[3] = test system: Streptococcus agalactiae JCM5671; conditions: for Antibacterial activity MIC: JCM5671; for antibacterial activity/MIC: S. agalactiae
Experimental: as §1, §2, §3

[4] = test system: Streptococcus pneumoniae NBRC 102642; conditions: for Antibacterial activity MIC: NBRC 102642; for antibacterial activity/MIC: S. pneumoniae
Experimental: as §1, §2, §3

[5] = test system: Streptococcus pyogenes SSI-9; conditions: for antibacterial activity/MIC: S. pyogenes; for Antibacterial activity MIC: SSI-9
Experimental: as §1, §2, §3

[6] = test system: MSSA1 (methicillin-susceptible Staphylococcus aureus); format: cell-based
Experimental: as §2, §3

[7] = Membrane disruption assay of purified peptides (carboxyfluorescein leakage); format: biochemical; set-up: key: % lysis; Triton X-100 = 100%, DMSO = 0%; conditions: three replicate lines
Experimental: Membrane disruption assay of purified peptides. 5(6)-Carboxyfluorescein (CF)-encapsulated large […]
through Nuclepore polycarbonate filters mounted in the mini-extruder apparatus. A solution of egg yolk phosphatidylcholine (EYPC, 22.0 mg, 28.9 µmol) in CHCl3 (225 µL) and egg yolk phosphatidylglycerol (1.2 0 […]
mM HEPES, 100 mM NaCl, 20 mM CF) by sonication. After five -times freeze-thaw cycles, the lipid […]
concentration of the resultant CF -encapsulated LUV suspension was deduced from the phosphatidylcholine concentration determined by using Phospholipid C -Test Wako. The lipid concentration of the LUV […]
as 5-fold serial dilution. The solution of peptide (2.0 µL) and the CF-encapsulated LUV suspension (200 […]
The resultant suspension was incubated at room temperature for 30 min. The fluorescence (Ex. 490 nm/Em. 517 nm) of each well was measured on Gemini EM microplate reader. Triton X-100/H2O (5/95, 3.0 µL), DMSO (2.0 µL), and the LUV suspension were mixed in each plate to determine 100% lysis. […]
was used to determine 0% lysis. The membrane disruption activities of tested peptides ( I) were normalized against 100% lysis by Triton X-100 (Imax) and 0% lysis by DMSO ( I0) according to Supplementary Equation 2 , where Ix is the fluorescence intensity.
The membrane disruption activities of the purified peptides were plotted as means of three replicates (Supplementary Figure 1).

[8] = H+/Na+ transport assay of purified peptides; conditions: for Supplementary Figure 5 dose-response value (H+/Na+ transport): three replicate lines
[9] = read-out: EC50, H+/Na+ transport assay, 1st experiment
[10] = read-out: EC50, H+/Na+ transport assay, 2nd experiment
[11] = read-out: EC50, H+/Na+ transport assay, 3rd experiment
[12] = read-out: H+/Na+ transport activity EC50, EYPC/EYPG (19:1) LUVs
[13] = read-out: H+/Na+ transport activity/EC50, mean ± SD of three independent experiments

| antibacterial activity/MIC [1] [µg/mL] | Antibacterial activity MIC [1] [µM] | antibacterial activity/MIC [2] [µg/mL] | Antibacterial activity MIC [3] [µM] | antibacterial activity/MIC [3] [µg/mL] | Antibacterial activity MIC [4] [µM] | antibacterial activity/MIC [4] [µg/mL] | antibacterial activity/MIC [5] [µg/mL] | Antibacterial activity MIC [5] [µM] | antibacterial activity/MIC [6] [µg/mL] | SMILES | Supplementary Figure 1 dose-response value ([7]; concentration 0.000512 nM) | Supplementary Figure 1 dose-response value ([7]; concentration 0.00256 nM) | Supplementary Figure 1 dose-response value ([7]; concentration 0.0128 nM) | Supplementary Figure 1 dose-response value ([7]; concentration 0.064 nM) | Supplementary Figure 1 dose-response value ([7]; concentration 0.32 nM) | Supplementary Figure 1 dose-response value ([7]; concentration 1.6 nM) | Supplementary Figure 1 dose-response value ([7]; concentration 8 nM) | Supplementary Figure 1 dose-response value ([7]; concentration 40 nM) | Supplementary Figure 1 dose-response value ([7]; concentration 200 nM) | Supplementary Figure 1 dose-response value ([7]; concentration 1000 nM) | other results |
| --- | --- | --- | --- | --- | --- | --- | --- | --- | --- | --- | --- | --- | --- | --- | --- | --- | --- | --- | --- | --- | --- |
| 1 | 0.54 | 8 | 4.3 | 8 | 0.0084 | 0.016 | 0.063 | 0.034 | 32 | CC(C)C[C@@H](NC(=O)[C@H](C)NC(=O)CNC(=O)[C@@H](NC=O)C(C)C)C(=O)N[C@@H](C)C(=O)N[C@@H](C(=O)N[C@H](C(=O)N[C@@H](C(=O)N[C@@H](Cc1c[nH]c2ccccc12)C(=O)N[C@@H](C(=O)N[C@@H](Cc1c[nH]c2ccccc12)C(=O)N[C@H](CC(C)C)C(=O)N[C@@H](Cc1c[nH]c2ccccc12)C(=O)N[C@@H](C(=O)N[C@@H](Cc1c[nH]c2ccccc12)C(=O)NCCO)C(C)C)C(C)C)C(C)C)C(C)C)C(C)C [B04] (For-VGA[dL]A[dV]V[dV]W[dV]W[dL]W[dV]W-NHCH2CH2OH) | 5.512 and 4.537 and 0.4455 | -0.04863 and -3.2 and 2.187 | 9.24 and 8.431 and 0.7987 | 3.3 and 2.841 and 2.346 | 3.831 and -2.375 and 0.08227 | 3.92 and -4.965 and 7.615 | 4.496 and 6.302 and 12.8514 | 10.2052 and 8.412 and 22.8437 | 31.7359 and 28.6719 and 15.6803 | 31.9617 and 33.3362 and 31.6759 | Antibacterial activity MIC ([2]; 10403S): 4.3 µM; Supplementary Figure 1 dose-response value ([7]; concentration 5000 nM): 49.4317 and 48.1889 and 46.8231; Supplementary Figure 5 dose-response value (H+/Na+ transport) ([8]; concentration 0.000512 nM): -0.2346 and 0.9427 and 1.027; Supplementary Figure 5 dose-response value (H+/Na+ transport) ([8]; concentration 0.00256 nM): 1.3317 and 0.8542 and 1.548; Supplementary Figure 5 dose-response value (H+/Na+ transport) ([8]; concentration 0.0128 nM): -1.2605 and 2.862 and -0.09432; Supplementary Figure 5 dose-response value (H+/Na+ transport) ([8]; concentration 0.064 nM): 5.945 and 3.111 and 2.028; Supplementary Figure 5 dose-response value (H+/Na+ transport) ([8]; concentration 0.32 nM): 10.5694 and 12.3828 and 8.56; Supplementary Figure 5 dose-response value (H+/Na+ transport) ([8]; concentration 1.6 nM): 26.4566 and 23.815 and 22.5252; Supplementary Figure 5 dose-response value (H+/Na+ transport) ([8]; concentration 8 nM): 54.4909 and 53.2036 and 54.0987; Supplementary Figure 5 dose-response value (H+/Na+ transport) ([8]; concentration 40 nM): 70.9935 and 73.4781 and 68.8062; Supplementary Figure 5 dose-response value (H+/Na+ transport) ([8]; concentration 200 nM): 73.8391 and 72.9169 and 76.5429; Supplementary Figure 5 dose-response value (H+/Na+ transport) ([8]; concentration 1000 nM): 75.0683 and 78.833 and 77.3632; Supplementary Figure 5 dose-response value (H+/Na+ transport) ([8]; concentration 5000 nM): 78.0479 and 76.1013 and 78.9016; EC50 [8, 9]: 3.43 nM; EC50 [8, 10]: 3.5 nM; EC50 [8, 11]: 4.18 nM; EC50 [8, 12]: 3.7 nM; EC50 [8, 13]: 3.71 ± 0.42 nM |
| 2 | 1.1 | 4 | 8.5 | 16 | 0.017 | 0.031 | 0.5 | 0.27 | 8 | CC(C)C[C@@H](NC(=O)[C@H](C)NC(=O)CNC(=O)[C@@H](NC=O)C(C)C)C(=O)N[C@@H](C)C(=O)N[C@H](CC(C)C)C(=O)N[C@H](C(=O)N[C@H](CC(C)C)C(=O)N[C@@H](Cc1c[nH]c2ccccc12)C(=O)N[C@H](CC(C)C)C(=O)N[C@@H](Cc1c[nH]c2ccccc12)C(=O)N[C@@H](C(=O)N[C@@H](Cc1c[nH]c2ccccc12)C(=O)N[C@@H](C(=O)N[C@@H](Cc1c[nH]c2ccccc12)C(=O)NCCO)C(C)C)[C@H](C)O)C(C)C [B11] (For-VGA[dL]A[dL]V[dL]W[dL]W[dT]W[dV]W-NHCH2CH2OH) | 5.494 and 6.863 and 12.708 | 14.2851 and 9.552 and 1.714 | 7.111 and 13.4023 and 5.9017 | 7.045 and 5.618 and 12.7128 | 7.504 and 4.742 and -0.9072 | 6.643 and 8.722 and 7.953 | 9.977 and 11.641 and 10.0816 | 10.5587 and 19.8477 and 14.3879 | 16.8668 and 21.6675 and 22.4815 | 29.3702 and 19.1829 and 26.8244 | Supplementary Figure 1 dose-response value ([7]; concentration 5000 nM): 51.942 and 51.7671 and 63.4556; Supplementary Figure 5 dose-response value (H+/Na+ transport) ([8]; concentration 0.000512 nM): 2.871 and 2.386 and 5.02; Supplementary Figure 5 dose-response value (H+/Na+ transport) ([8]; concentration 0.00256 nM): 3.181 and 2.224 and 1.333; Supplementary Figure 5 dose-response value (H+/Na+ transport) ([8]; concentration 0.0128 nM): 4.586 and 1.99 and 1.993; Supplementary Figure 5 dose-response value (H+/Na+ transport) ([8]; concentration 0.064 nM): 7.716 and 4.162 and 7.014; Supplementary Figure 5 dose-response value (H+/Na+ transport) ([8]; concentration 0.32 nM): 12.4442 and 13.4783 and 13.1353; Supplementary Figure 5 dose-response value (H+/Na+ transport) ([8]; concentration 1.6 nM): 25.1993 and 24.5125 and 22.5261; Supplementary Figure 5 dose-response value (H+/Na+ transport) ([8]; concentration 8 nM): 38.4333 and 37.5732 and 33.164; Supplementary Figure 5 dose-response value (H+/Na+ transport) ([8]; concentration 40 nM): 66.9626 and 64.2822 and 61.6393; Supplementary Figure 5 dose-response value (H+/Na+ transport) ([8]; concentration 200 nM): 70.7655 and 66.8425 and 69.2783; Supplementary Figure 5 dose-response value (H+/Na+ transport) ([8]; concentration 1000 nM): 70.5972 and 73.9169 and 73.5278; Supplementary Figure 5 dose-response value (H+/Na+ transport) ([8]; concentration 5000 nM): 72.3937 and 72.1348 and 73.2071; EC50 [8, 9]: 6.44 nM; EC50 [8, 10]: 2.58 nM; EC50 [8, 11]: 7.92 nM; EC50 [8, 12]: 5.7 nM; EC50 [8, 13]: 5.65 ± 2.76 nM |
